# Laboratory results as given in patent US11396511B2, “Substituted 9,13b-dihydro-1H-dibenzo[c,f]imidazo[1,5-a]azepin-3-ylbenzamides as anti-inflammatory and analgesic agents” (FRONTBIO CO., LTD., priority 2017, dated 2022).
# Tests used:
# [1] = system: monosodium urate (MSU) models; experiment: Von-frey test in monosodium urate models; format: in vivo, mice; design: threshold values (Von-frey test): unit not given here; details: monosodium urate model
# Description: 100 mg of uric acid and 60 μl of 10 N NaOH were dissolved in 20 ml of distilled water and the pH of the solution was adjusted to 7.2-7.4 with HCl (1 N) at 60° C. After stirring at room temperature for 5 days, the solution was plated in a 1 ml tube and stored for 4 days. The solution was vortexed overnight until needle-like crystals appeared. The solution was washed twice with 100% ethanol and centrifuged at 3000 rpm for 2 min. Finally, the MSU crystals were collected and dissolved in […] of endotoxin-free PBS. The resulting sample were injected intra-articularly into mice (MSU 300 μg/10 μl each) under anesthesia. At 24 h post-injection, pain or ankle swelling were measured to determine the analgesic efficacy of a test substance.
# (§1) After damage to the sciatic nerve, allodynia induced by the mechanical stimulus was measured. Mice were housed in acrylic chambers on a steel mesh floor and acclimated for ≥60 min before testing. Continuous responses were evaluated using Von-frey filaments by the up-down method. The filaments were brought into vertical contact with the affected left soles and the contact was maintained for 5-6 sec. The response was considered to be positive when the mouse rapidly avoided the stimulus, startled or licked its sole. The Von-frey filaments were first used to stimulate the mice.
# The analgesic efficacies of the test substances were evaluated in monosodium urate models. To this end, after oral administration of each test substance at concentrations of 10, 20, 40, and 80 mg/kg, threshold values were measured at different periods of time through Von-frey test.
# Raw 264.7 cells = experiment: Measurement of NO production in LPS-stimulated Raw 264.7 cells; format: cell-based
# Description: Raw 264.7 cells were plated in a 96-well cell culture plate (50,000 cells/well). Lipopolysaccharide (LPS) was diluted to 100 ng/ml and the dilution was added to the cell culture media The LPS stimulus was applied for 24 h to induce the activity of the Raw 264.7 cells and supernatants (50 μl each) obtained from the 96-well cell culture plate were plated in a new plate. 50 μl of a sulfanilamide solution was added and the reaction was allowed to proceed for 10 min. 50 μl of a NED solution was added and the reaction was allowed to proceed for 10 min. The amount of NO produced from the cells in the cell culture media was determined by measuring the absorbance at a wavelength of 540 nm.
# MAPK = experiment: Western blot analysis, MAPK signaling by LPS signals; format: cell-based
# Description: (§2) Cells were harvested, washed with 1×PBS, and suspended by adding a mixture of a protein extraction buffer (150 mM NaCl, 50 mM Tris-HCl pH 7.4, 5 mM EDTA pH 8.0, 1% NP-40) and a protease inhibitor cocktail. Then, the reaction was allowed to proceed in ice for 20 min, sonicated, and centrifuged (13,000 rpm, 30 min). The concentration of proteins in the supernatant was quantified by a BCA protein assay and proteins were separated on the basis of size on an SDS-PAGE gel. Thereafter, proteins were transferred to a PVDF membrane and blocked with skim milk for 1 h. Primary and secondary antibodies were coupled and photosensitized with ECL solution to determine the expression levels of desired proteins.
# [2] = system: streptozotocin-induced diabetic mice; experiment: Von-frey test in diabetic neuropathy models; format: in vivo; design: threshold values (Von-frey test): unit not given here
# Description: 65 mg/kg of streptozotocin (Sigma Corp., USA) was dissolved at a concentration of 15 mg/ml in 0.1 M citrate buffer at pH 4.5 and the resulting solution was administered intraperitoneally to mice. Blood glucose levels were measured 1 week after administration and streptozotocin-induced diabetic mice were chosen.
# as §1
# The inhibitory effects of the test substances on pain were determined in diabetic neuropathy models. To this end, after oral administration of each test substance at concentrations of 10, 20, 40, and 80 mg/kg, threshold values were measured at different periods of time through Von-frey test.
# Akt = experiment: Western blot analysis, Akt signaling by LPS signals; format: cell-based; details: 100 uM
# Description: as §2
# mice = experiment: Hot-plate test; format: in vivo; details: for response time to the thermal stimulus (hot-plate): 30 min pretreatment, in s (unit assumed)
# Description: Hot-plate test was conducted using an electric heater to measure the analgesic activity of the test substances on the acute thermal stimulus. Experimental animals were injected with the test drugs and a vehicle (control) and were sequentially placed on an electric heater (hot-plate). The response time to the thermal stimulus ([…]) was defined as the time until the experimental animal licked their paws. Male mice weighing 22-25 g, aged 4-5 weeks, were used as the test animals (10 per group).
# 30 min after pretreatment with the compound 3 (E-S) at concentrations of 10, 20, 40, and 80 mg/kg, hot-plate test was conducted to assess the analgesic efficacy of the compound 3. […] The analgesic efficacy of the compound 4 (E-A) was assessed in the same manner as that of the compound 3.
# [3] = oral 10, 20, 40, 80 mg/kg tested
structure (smiles),measurement,setting,value
"O=C(NC1=NCC2c3ccccc3Cc3ccccc3N12)c1ccccc1O (stereo not drawn) [E-S, N-(9,13b-dihydro-1H-dibenzo[c,f]imidazo[1,5-a]azepin-3-yl)-2-hydroxybenzamide]",threshold values (Von-frey test),"[1]; oral 10 mg/kg, 1 h, 10 mg/kg",0.173
same,threshold values (Von-frey test),"[1]; oral 10 mg/kg, 2 h, 10 mg/kg",0.211
same,threshold values (Von-frey test),"[1]; oral 10 mg/kg, 3 h, 10 mg/kg",0.148
same,threshold values (Von-frey test),"[1]; oral 10 mg/kg, 4 h, 10 mg/kg",0.166
same,threshold values (Von-frey test),"[1]; oral 10 mg/kg, 5 h, 10 mg/kg",0.107
same,threshold values (Von-frey test),"[1]; oral 10 mg/kg, basal",0.127
same,threshold values (Von-frey test),"[1]; oral 20 mg/kg, 1 h, 20 mg/kg",0.194
same,threshold values (Von-frey test),"[1]; oral 20 mg/kg, 2 h, 20 mg/kg",0.163
same,threshold values (Von-frey test),"[1]; oral 20 mg/kg, 4 h, 20 mg/kg",0.207
same,threshold values (Von-frey test),"[1]; oral 20 mg/kg, 5 h, 20 mg/kg",0.194
same,threshold values (Von-frey test),"[1]; oral 20 mg/kg, basal",0.127
same,threshold values (Von-frey test),"[1]; oral 40 mg/kg, 1 h, 40 mg/kg",0.183
same,threshold values (Von-frey test),"[1]; oral 40 mg/kg, 2 h, 40 mg/kg",0.214
same,threshold values (Von-frey test),"[1]; oral 40 mg/kg, 3 h, 40 mg/kg",0.278
same,threshold values (Von-frey test),"[1]; oral 40 mg/kg, 4 h, 40 mg/kg",0.257
same,threshold values (Von-frey test),"[1]; oral 40 mg/kg, 5 h, 40 mg/kg",0.152
same,threshold values (Von-frey test),"[1]; oral 40 mg/kg, basal",0.127
same,threshold values (Von-frey test),"[1]; oral 80 mg/kg, 1 h, 80 mg/kg",0.239
same,threshold values (Von-frey test),"[1]; oral 80 mg/kg, 2 h, 80 mg/kg",0.439
same,threshold values (Von-frey test),"[1]; oral 80 mg/kg, 3 h, 80 mg/kg",0.301
same,threshold values (Von-frey test),"[1]; oral 80 mg/kg, 4 h, 80 mg/kg",0.267
same,threshold values (Von-frey test),"[1]; oral 80 mg/kg, 5 h, 80 mg/kg",0.155
same,threshold values (Von-frey test),"[1]; oral 80 mg/kg, basal",0.138
same,"analgesic efficacy, Von-frey test (in words)","[1]; oral 10, 20, 40, 80 mg/kg",concentration-dependent until 2 h after treatment
same,"concentration of highest analgesic efficacy, Von-frey test",[1]; [3],80 mg/kg
same,inhibition at 12.5 µM,"Raw 264.7 cells; Mus musculus, RAW264.7, 12.5 μM, LPS 100 ng/ml, 24 h",0%
same,inhibition at 25 µM,"Raw 264.7 cells; Mus musculus, RAW264.7, 25 μM, LPS 100 ng/ml, 24 h",9.47%
same,inhibition at 50 µM,"Raw 264.7 cells; Mus musculus, RAW264.7, 50 μM, LPS 100 ng/ml, 24 h",30.8%
same,inhibition at 100 µM,"Raw 264.7 cells; Mus musculus, RAW264.7, 100 μM, LPS 100 ng/ml, 24 h",40.8%
same,reduction of NO production (in words),Raw 264.7 cells; together with LPS (100 ng/ml),concentration-dependent reduction in NO production
same,effect on MAPK signaling by LPS signals,MAPK,did not appear to significantly affect MAPK signaling
same,threshold values (Von-frey test),"[2]; oral 10 mg/kg, 1 h",0.247
same,threshold values (Von-frey test),"[2]; oral 10 mg/kg, 2 h",0.208
same,threshold values (Von-frey test),"[2]; oral 10 mg/kg, 3 h",0.363
same,threshold values (Von-frey test),"[2]; oral 10 mg/kg, 4 h",0.330
same,threshold values (Von-frey test),"[2]; oral 10 mg/kg, 5 h",0.286
same,threshold values (Von-frey test),"[2]; oral 10 mg/kg, basal",0.247
same,threshold values (Von-frey test),"[2]; oral 20 mg/kg, 1 h",0.286
same,threshold values (Von-frey test),"[2]; oral 20 mg/kg, 2 h",0.208
same,threshold values (Von-frey test),"[2]; oral 20 mg/kg, 3 h",0.314
same,threshold values (Von-frey test),"[2]; oral 20 mg/kg, 4 h",0.186
same,threshold values (Von-frey test),"[2]; oral 20 mg/kg, 5 h",0.324
same,threshold values (Von-frey test),"[2]; oral 20 mg/kg, basal",0.208
same,threshold values (Von-frey test),"[2]; oral 40 mg/kg, 1 h",0.314
same,threshold values (Von-frey test),"[2]; oral 40 mg/kg, 2 h",0.391
same,threshold values (Von-frey test),"[2]; oral 40 mg/kg, 3 h",0.352
same,threshold values (Von-frey test),"[2]; oral 40 mg/kg, 4 h",0.314
same,threshold values (Von-frey test),"[2]; oral 40 mg/kg, 5 h",0.391
same,threshold values (Von-frey test),"[2]; oral 40 mg/kg, basal",0.225
same,threshold values (Von-frey test),"[2]; oral 80 mg/kg, 1 h",0.613
same,threshold values (Von-frey test),"[2]; oral 80 mg/kg, 2 h",0.574
same,threshold values (Von-frey test),"[2]; oral 80 mg/kg, 3 h",0.391
same,threshold values (Von-frey test),"[2]; oral 80 mg/kg, 4 h",0.419
same,threshold values (Von-frey test),"[2]; oral 80 mg/kg, 5 h",0.225
same,threshold values (Von-frey test),"[2]; oral 80 mg/kg, basal",0.164
same,"analgesic efficacy, Von-frey test (in words)","[2]; oral 10, 20, 40, 80 mg/kg",concentration-dependent until 1-2 h after treatment
same,"concentration of highest analgesic efficacy, Von-frey test",[2]; [3],80 mg/kg
same,phosphorylation of Akt by LPS,Akt,observed to decrease
same,response time to the thermal stimulus (hot-plate),mice; 10 mg/kg,8.64
same,response time to the thermal stimulus (hot-plate),mice; 20 mg/kg,13.34
same,response time to the thermal stimulus (hot-plate),mice; 40 mg/kg,15.52
same,response time to the thermal stimulus (hot-plate),mice; 80 mg/kg,19.30
same,analgesic efficacy in hot-plate test (in words),"mice; 10, 20, 40, 80 mg/kg",significant at 40 and 80 mg/kg
